Values quoted from earlier work, collected in patent US6485708B1, “Products and methods for the remineralization and prevention of demineralization of teeth” (Church & Dwight Co. Inc., priority 1999, dated 2002).

Details: aqueous solution, pH about 7.0, about 25° C.

O.O.O=P([O-])([O-])O.[Ca+2] [dicalcium phosphate dihydrate]
calcium cations released: about 40 ppm
